Reference: patent US9359308B2, “Pyrazine kinase inhibitors” (Portola Pharmaceuticals, Inc., priority 2011, dated 2016)

Target: T1, full length active recombinant SYK enzyme (Homo sapiens, UniProt P43405)
T1 construct: full length active recombinant SYK enzyme (Millipore, Calif.); purchased Millipore
Assay: Inhibition of Syk tyrosine phosphorylation activity (LANCE TR-FRET kinase assay)
Assay type: biochemical
Conditions: activity in the Syk assays, class symbols
Source text: The in vitro and in vivo human Syk activities of the inventive compounds can be determined by various procedures known in the art, such as a test for their ability to inhibit the activity of human plasma Syk. […] The IC50 value is the concentration (in nM) of the compound required to provide 50% inhibition of human Syk proteolytic activity.
An in vitro assay for detecting and measuring inhibition activity against Syk is as follows:
Inhibition of Syk Tyrosine Phosphorylation Activity
Potency of candidate molecules for inhibiting Syk tyrosine phosphorylation activity is assessed by measuring the ability of a test compound to inhibit Syk-mediated tyrosine phosphorylation of a Syk-specific substrate.
SYK tyrosine phosphorylation activity is measured using the LANCE™ Technology developed by Perkin Elmer Life and Analytical Sciences (Boston, Mass.). LANCE™ refers to homogeneous time resolved fluorometry applications using techniques such as time-resolved fluorescence resonance energy transfer assay (TR-FRET) (see generally for procedures in Perkin Elmer Application Note-How to Optimize a Tyrosine Kinase Assay Using Time Resolved Fluorescence-Based LANCE Detection, wwww.perkinelmer.com/lifesciences). The assay principle involves detection of a phosphorylated substrate using energy transfer from a phosphospecific europium-labeled antibody to streptavidin-allophycocyanin as an acceptor.
To test the ability of candidate molecules to inhibit SYK tyrosine phosphorylation activity, molecules are reconstituted in 30% DMSO and serially diluted 1:3 with the final dilution containing DMSO in the absence of the candidate molecule. The final DMSO concentration in the assay is 3%. Kinase assays are performed as a two part reaction. The first reaction is a kinase reaction and which comprises of a candidate molecule, full length active recombinant SYK enzyme (Millipore, Calif.) and biotin-labeled SYK-specific substrate biotin-DEEDYESP-OH. The second reaction involves termination of the kinase reaction and the simultaneous addition of the detection reagents-europium-labeled anti-phosphotyrosine reagent (Eu-W1024-PY100, Perkin Elmer, Boston, Mass.) and Streptavidin-Allophycocyanin detection reagent (SA-APC, Prozyme, CA). The kinase reaction is performed in a black U-bottom 96-well microtitre plate. The final reaction volume is 50 μL and contains a final concentration of 1 nM active SYK enzyme, 550 nM SYK-substrate, and 100 μM ATP diluted in a buffer containing 50 mM Tris pH 7.5, 5 mM MgCl2, and 1 mM DTT. The reaction is allowed to proceed for 1 hour at room temperature. The quench buffer contains 100 mM Tris pH 7.5, 300 mM NaCl2, 20 mM EDTA, 0.02% Brij35, and 0.5% BSA. The detection reagents are added to the reaction mixture at the following dilutions-1:500 for Eu-W1024-PY100 and 1:250 for SA-APC. The kinase reaction is terminated by the addition of 50 μL quench buffer containing the detection reagents. The detection is allowed to proceed for 1 hr at room temperature. Detection of the phosphorlated substrate in the absence and presence of inhibitors is measured in the TR-FRET instrument, Analyst HT (Molecular Probes, Sunnyvale, Calif.) and the condition for measurements are set up using CriterionHost Release 2.0 (Molecular Probes, Sunnyvale, Calif.). The settings used are a follows: excitation 360 nm, emission 665-7.5 nm, beam splitter 350 nm 50/50, flash 100 pulses, delay 60 us, integration 400 us, z-height 2 mm. Inhibition of SYK-tyrosine kinase activity is calculated as the maximum response observed in the presence of inhibitor, compared to that in the absence of inhibitor. IC50s were derived by non-linear regression analysis.

| SMILES | IC50 [nM] |
| --- | --- |
| NC(=O)c1ncc(N[C@@H]2CCCC[C@@H]2N)nc1Nc1ccc2[nH]ncc2c1 (racemic) [Example 54, cis-3-(1H-indazol-5-ylamino)-5-(2-aminocyclohexylamino)pyrazine-2-carboxamide] | < 1 |
| CC(C)C[C@@H](Nc1cnc(C(N)=O)c(Nc2cnc3ccccc3c2)n1)C(N)=O [Example 1, (R)-5-(1-amino-4-methyl-1-oxopentan-2-ylamino)-3-(quinolin-3-ylamino)pyrazine-2-carboxamide] | 1 to 10 |
| CC(C)C[C@@H](Nc1cnc(C(N)=O)c(Nc2ccc3ncccc3c2)n1)C(N)=O [Example 2, (R)-5-(1-amino-4-methyl-1-oxopentan-2-ylamino)-3-(quinolin-6-ylamino)pyrazine-2-carboxamide] | 1 to 10 |
| CC(C)C[C@@H](Nc1cnc(C(N)=O)c(Nc2cccc3c2ccn3C)n1)C(N)=O [Example 3, (R)-5-(1-amino-4-methyl-1-oxopentan-2-ylamino)-3-(1-methyl-1H-indol-4-ylamino)pyrazine-2-carboxamide] | 1 to 10 |
| C[C@@H](Nc1cnc(C(N)=O)c(Nc2ccc3ncccc3c2)n1)C(N)=O [Example 4, (R)-5-(1-amino-1-oxopropan-2-ylamino)-3-(quinolin-6-ylamino)pyrazine-2-carboxamide] | 1 to 10 |
| C[C@@H](Nc1cnc(C(N)=O)c(Nc2cnc3ccccc3c2)n1)C(N)=O [Example 5, (R)-5-(1-amino-1-oxopropan-2-ylamino)-3-(quinolin-3-ylamino)pyrazine-2-carboxamide] | 1 to 10 |
| NC(=O)c1ncc(NC(CC(F)(F)F)C(N)=O)nc1Nc1ccc2ncccc2c1 (stereo not shown) [Example 6, 5-(1-amino-4,4,4-trifluoro-1-oxobutan-2-ylamino)-3-(quinolin-6-ylamino)pyrazine-2-carboxamide] | 1 to 10 |
| NC(=O)c1ncc(N[C@H](CC2CC2)C(N)=O)nc1Nc1cnc2ccccc2c1 [Example 7, (R)-5-(1-amino-3-cyclopropyl-1-oxopropan-2-ylamino)-3-(quinolin-3-ylamino)pyrazine-2-carboxamide] | 1 to 10 |
| NC(=O)c1ncc(N[C@H](CC2CC2)C(N)=O)nc1Nc1ccc2ncccc2c1 [Example 8, (R)-5-(1-amino-3-cyclopropyl-1-oxopropan-2-ylamino)-3-(quinolin-6-ylamino)pyrazine-2-carboxamide] | 1 to 10 |
| NC(=O)c1ncc(N[C@H](CC2CC2)C(N)=O)nc1Nc1csc2ncccc12 [Example 9, (R)-5-(1-amino-3-cyclopropyl-1-oxopropan-2-ylamino)-3-(thieno[2,3-b]pyridin-3-ylamino)pyrazine-2-carboxamide] | 1 to 10 |
| NC(=O)c1ncc(N[C@@H]2CCCC[C@@H]2N)nc1Nc1cccc(-n2nccn2)c1 [Example 10, 3-(3-(2H-1,2,3-triazol-2-yl)phenylamino)-5-((1R,2S)-2-aminocyclohexylamino)pyrazine-2-carboxamide] | 1 to 10 |
| Cn1ccc2c(Nc3nc(N[C@@H]4CCCC[C@@H]4N)cnc3C(N)=O)cccc21 [Example 11, 5-((1R,2S)-2-aminocyclohexylamino)-3-(1-methyl-1H-indol-4-ylamino)pyrazine-2-carboxamide] | 1 to 10 |
| NC(=O)c1ncc(N[C@@H]2CCCC[C@@H]2N)nc1Nc1cccc(-c2ncccn2)c1 [Example 12, 5-((1R,2S)-2-aminocyclohexylamino)-3-(3-(pyrimidin-2-yl)phenylamino)pyrazine-2-carboxamide] | 1 to 10 |
| NC(=O)c1ccc(Nc2nc(N[C@@H]3CCCC[C@@H]3N)cnc2C(N)=O)cc1 [Example 13, 5-((1R,2S)-2-aminocyclohexylamino)-3-(4-carbamoylphenylamino)pyrazine-2-carboxamide] | 1 to 10 |
| NC(=O)c1ncc(N[C@@H]2CCCC(F)(F)[C@@H]2N)nc1Nc1ccc2ncccc2c1 [Example 14, 5-((1R,2R)-2-amino-3,3-difluorocyclohexylamino)-3-(quinolin-6-ylamino)pyrazine-2-carboxamide] | 1 to 10 |
| NC(=O)c1ncc(N[C@@H]2CCCC(F)(F)[C@@H]2N)nc1Nc1cccc(-n2nccn2)c1 [Example 15, 3-(3-(2H-1,2,3-triazol-2-yl)phenylamino)-5-((1R,2R)-2-amino-3,3-difluorocyclohexylamino)pyrazine-2-carboxamide] | 10 to 100 |
| NC(=O)c1ncc(N[C@@H]2CCCC(F)(F)[C@@H]2N)nc1Nc1cccc(-c2ncccn2)c1 [Example 16, 5-((1R,2R)-2-amino-3,3-difluorocyclohexylamino)-3-(3-(pyrimidin-2-yl)phenylamino)pyrazine-2-carboxamide] | 100 to 1000 |
| NC(=O)c1ncc(N[C@@H]2CCCC(F)(F)[C@@H]2N)nc1Nc1ccccc1 [Example 17, 5-((1R,2R)-2-amino-3,3-difluorocyclohexylamino)-3-(phenylamino)pyrazine-2-carboxamide] | 10 to 100 |
| NC(=O)c1ncc(N[C@@H]2CCCC(F)(F)[C@@H]2N)nc1Nc1ccc(-c2ccno2)cc1 [Example 18, 5-((1R,2R)-2-amino-3,3-difluorocyclohexylamino)-3-(4-(isoxazol-5-yl)phenylamino)pyrazine-2-carboxamide] | 10 to 100 |
| NC(=O)c1ccc(Nc2nc(N[C@@H]3CCCC(F)(F)[C@@H]3N)cnc2C(N)=O)cc1 [Example 19, 5-((1R,2R)-2-amino-3,3-difluorocyclohexylamino)-3-(4-carbamoylphenylamino)pyrazine-2-carboxamide] | 10 to 100 |
| CC(C)C[C@@H](Nc1cnc(C(N)=O)c(Nc2ccc(C(N)=O)cc2)n1)C(N)=O [Example 20, (R)-5-(1-amino-4-methyl-1-oxopentan-2-ylamino)-3-(4-carbamoylphenylamino)pyrazine-2-carboxamide] | 1 to 10 |
| CC(C)C[C@@H](Nc1cnc(C(N)=O)c(Nc2ccc(-c3ccno3)cc2)n1)C(N)=O [Example 21, (R)-5-(1-amino-4-methyl-1-oxopentan-2-ylamino)-3-(4-(isoxazol-5-yl)phenylamino)pyrazine-2-carboxamide] | 1 to 10 |
| Cc1cc(Nc2nc(N[C@H](CC(C)C)C(N)=O)cnc2C(N)=O)sn1 [Example 22, (R)-5-(1-amino-4-methyl-1-oxopentan-2-ylamino)-3-(3-methylisothiazol-5-ylamino)pyrazine-2-carboxamide] | 1 to 10 |
| Cc1cc(Nc2nc(N[C@@H]3CCCC(F)(F)[C@@H]3N)cnc2C(N)=O)sn1 [Example 23, 5-((1R,2R)-2-amino-3,3-difluorocyclohexylamino)-3-(3-methylisothiazol-5-ylamino)pyrazine-2-carboxamide] | 10 to 100 |
| COc1ccc(Nc2nc(N[C@@H]3CCCC(F)(F)[C@@H]3N)cnc2C(N)=O)cc1 [Example 24, 5-((1R,2R)-2-amino-3,3-difluorocyclohexylamino)-3-(4-methoxyphenylamino)pyrazine-2-carboxamide] | 10 to 100 |
| NC(=O)c1ncc(N[C@@H]2CCCC(F)(F)[C@@H]2N)nc1Nc1ccc2c(c1)CCC(=O)N2 [Example 25, 5-((1R,2R)-2-amino-3,3-difluorocyclohexylamino)-3-(2-oxo-1,2,3,4-tetrahydroquinolin-6-ylamino)pyrazine-2-carboxamide] | 1 to 10 |
| NC(=O)c1ncc(N[C@@H]2CCCC(F)(F)[C@@H]2N)nc1Nc1ccc(-c2ccncc2)cc1 [Example 26, 5-((1R,2R)-2-amino-3,3-difluorocyclohexylamino)-3-(4-(pyridin-4-yl)phenylamino)pyrazine-2-carboxamide] | 10 to 100 |
| CC[C@@H](Nc1cnc(C(N)=O)c(Nc2ccc(-c3nnco3)cc2)n1)C(N)=O [Example 27, (R)-3-(4-(1,3,4-oxadiazol-2-yl)phenylamino)-5-(1-amino-1-oxobutan-2-ylamino)pyrazine-2-carboxamide] | 10 to 100 |
